Reference: PubChem BioAssay AID1259407 (Chemical Carcinogenesis Research Information System (CCRIS), 2018)
Activity calls are given as the source filed them. No rule for the calls is given here.

Test system: CCRIS mutagenicity, Ames/micronucleus/aberration tests
Assay: CCRIS mutagenicity studies

CCOS(C)(=O)=O
mutagenic call (End Point: IN VITRO MICRONUCLEUS, Test System: CHL/IU CELLS, Metabolic Activation: NONE): active; positive | mutagenic call (End Point: IN VITRO MICRONUCLEUS, Test System: V79 CELLS, Metabolic Activation: NONE): active; positive | mutagenic call (End Point: In vitro micronucleus, Test System: Chinese Hamster Ovary (CHO-WBL) cells, Metabolic Activation: None): active; positive (p<0.01) | mutagenic call (End Point: In vivo micronucleus, Test System: Micronucleated hepatocytes, Species: Rat, Strain/Sex: F344/Male, Route: Intraperitoneal): inactive; negative | mutagenic call (End Point: In vivo micronucleus, Test System: Micronucleated hepatocytes, Species: Rat, Strain/Sex: F344/Male, Route: Oral): inactive; negative | mutagenic call (Test System: AMES SALMONELLA TYPHIMURIUM, Strain/Indicator: TA98, Metabolic Activation: NONE, Method: SPIRAL ASSAY): inactive; negative | mutagenic call (Test System: AMES SALMONELLA TYPHIMURIUM, Strain/Indicator: TA98, Metabolic Activation: NONE, Method: STANDARD PLATE): inactive; negative | mutagenic call (Test System: AMES SALMONELLA TYPHIMURIUM, Strain/Indicator: TA98, Metabolic Activation: RAT, LIVER, S-9, AROCLOR 1254, Method: SPIRAL ASSAY): active; positive | mutagenic call (Test System: AMES SALMONELLA TYPHIMURIUM, Strain/Indicator: TA100, Metabolic Activation: NONE, Method: SPIRAL ASSAY): active; positive | mutagenic call (Test System: AMES SALMONELLA TYPHIMURIUM, Strain/Indicator: TA100, Metabolic Activation: NONE, Method: STANDARD PLATE): active; positive | mutagenic call (Test System: AMES SALMONELLA TYPHIMURIUM, Strain/Indicator: TA100, Metabolic Activation: RAT, LIVER, S-9, AROCLOR 1254, Method: SPIRAL ASSAY): inactive; negative | mutagenic call (Test System: AMES SALMONELLA TYPHIMURIUM, Strain/Indicator: TA100, Metabolic Activation: RAT, LIVER, S-9, AROCLOR 1254, Method: STANDARD PLATE): active; positive | mutagenic call (Test System: AMES SALMONELLA TYPHIMURIUM, Strain/Indicator: TA1535, Metabolic Activation: NONE, Method: SPIRAL ASSAY): active; positive | mutagenic call (Test System: AMES SALMONELLA TYPHIMURIUM, Strain/Indicator: TA1535, Metabolic Activation: NONE, Method: STANDARD PLATE): active; positive | mutagenic call (Test System: AMES SALMONELLA TYPHIMURIUM, Strain/Indicator: TA1535, Metabolic Activation: RAT, LIVER, S-9, AROCLOR 1254, Method: SPIRAL ASSAY): active; positive | mutagenic call (Test System: AMES SALMONELLA TYPHIMURIUM, Strain/Indicator: TA1535, Metabolic Activation: RAT, LIVER, S-9, AROCLOR 1254, Method: STANDARD PLATE): active; positive | mutagenic call (Test System: AMES SALMONELLA TYPHIMURIUM, Strain/Indicator: TA1537, Metabolic Activation: NONE, Method: SPIRAL ASSAY): inactive; negative | mutagenic call (Test System: AMES SALMONELLA TYPHIMURIUM, Strain/Indicator: TA1537, Metabolic Activation: NONE, Method: STANDARD PLATE): active; positive | mutagenic call (Test System: AMES SALMONELLA TYPHIMURIUM, Strain/Indicator: TA1537, Metabolic Activation: RAT, LIVER, S-9, AROCLOR 1254, Method: SPIRAL ASSAY): inactive; negative | mutagenic call (Test System: AMES SALMONELLA TYPHIMURIUM, Strain/Indicator: TA1537, Metabolic Activation: RAT, LIVER, S-9, AROCLOR 1254, Method: STANDARD PLATE): active; positive | mutagenic call (Test System: AMES SALMONELLA TYPHIMURIUM, Strain/Indicator: TA1538, Metabolic Activation: RAT, LIVER, S-9, AROCLOR 1254, Method: STANDARD PLATE): active; positive | mutagenic call (Test System: AMES SALMONELLA TYPHIMURIUM, Strain/Indicator: YG7100, Metabolic Activation: NONE, Method: PREINCUBATION): inactive; negative | mutagenic call (Test System: AMES SALMONELLA TYPHIMURIUM, Strain/Indicator: YG7104, Metabolic Activation: NONE, Method: PREINCUBATION): active; positive | mutagenic call (Test System: AMES SALMONELLA TYPHIMURIUM, Strain/Indicator: YG7108, Metabolic Activation: NONE, Method: PREINCUBATION): active; positive | mutagenic call (Test System: AMES SALMONELLA TYPHIMURIUM, Strain/Indicator: YG7112, Metabolic Activation: NONE, Method: PREINCUBATION): active; positive | mutagenic call (Test System: AMES SALMONELLA TYPHIMURIUM, Strain/Indicator: YG7113, Metabolic Activation: NONE, Method: PREINCUBATION): active; positive | mutagenic call (Test System: AMES SALMONELLA TYPHIMURIUM, Strain/Indicator: YG7119, Metabolic Activation: NONE, Method: PREINCUBATION): inactive; negative | mutagenic call (Test System: CHINESE HAMSTER OVARY, Strain/Indicator: CHO-K1-BH4 (HGPRT)/6-THIOGUANINE, Metabolic Activation: NONE, Method: LIQUID SUSPENSION): active; positive | mutagenic call (Test System: CHINESE HAMSTER OVARY, Strain/Indicator: CHO-K1-BH4 (HGPRT)/6-THIOGUANINE, Metabolic Activation: NONE, Method: SUSPENSION/PLATE): active; positive | mutagenic call (Test System: CHINESE HAMSTER OVARY, Strain/Indicator: CHO-K1-BH4 (HGPRT), Metabolic Activation: NONE, Method: MONOLAYER): active; positive | mutagenic call (Test System: CHINESE HAMSTER OVARY, Strain/Indicator: CHO-K1-BH4 (HGPRT), Metabolic Activation: NONE, Method: SUSPENSION/PLATE): active; positive | mutagenic call (Test System: CHINESE HAMSTER V-79, Strain/Indicator: V-79 (HGPRT)/6-THIOGUANINE, Metabolic Activation: NONE): active; positive | mutagenic call (Test System: CHINESE HAMSTER V-79, Strain/Indicator: V-79 (HPRT)/6-THIOGUANINE, Metabolic Activation: NONE, Method: FLUCTUATION TEST): active; positive | mutagenic call (Test System: CHINESE HAMSTER V-79, Strain/Indicator: V-79-MZ (HPRT)/6-THIOGUANINE, Metabolic Activation: NONE): active; positive | mutagenic call (Test System: CHINESE HAMSTER V-79, Strain/Indicator: V-79-UL (HPRT)/6-THIOGUANINE, Metabolic Activation: NONE): active; positive | mutagenic call (Test System: CHINESE HAMSTER V-79, Strain/Indicator: V-79/6-THIOGUANINE, Metabolic Activation: NONE, Method: FLASK ASSAY): active; positive | mutagenic call (Test System: CHINESE HAMSTER V-79, Strain/Indicator: V-79/6-THIOGUANINE, Metabolic Activation: NONE, Method: LIQUID SUSPENSION): active; positive | mutagenic call (Test System: CHINESE HAMSTER V-79, Strain/Indicator: V-79/6-THIOGUANINE, Metabolic Activation: NONE, Method: STANDARD PLATE): active; positive | mutagenic call (Test System: CHINESE HAMSTER V-79, Strain/Indicator: V-79/6-THIOGUANINE, Metabolic Activation: NONE, Method: SUSPENSION/PLATE): active; positive | mutagenic call (Test System: CHINESE HAMSTER V-79, Strain/Indicator: V-79/8-AZAGUANINE, Metabolic Activation: NONE, Method: STANDARD PLATE): active; positive | mutagenic call (Test System: CHINESE HAMSTER V-79, Strain/Indicator: V-79/8-AZAGUANINE, Metabolic Activation: NONE, Method: SUSPENSION/PLATE): active; positive | mutagenic call (Test System: CHINESE HAMSTER V-79, Strain/Indicator: V-79/OUABAIN, Metabolic Activation: NONE, Method: STANDARD PLATE): active; positive | mutagenic call (Test System: CHINESE HAMSTER V-79, Strain/Indicator: V-79/OUABAIN, Metabolic Activation: NONE, Method: SUSPENSION/PLATE): active; positive | mutagenic call (Test System: CHO/HGPRT, Strain/Indicator: CHO-K1-BH4, Metabolic Activation: MOUSE, IN VIVO, Method: HOST-MEDIATED): active; positive | mutagenic call (Test System: E. COLI, Strain/Indicator: WP2, Metabolic Activation: NONE, Method: STANDARD PLATE): active; positive | mutagenic call (Test System: E. COLI, Strain/Indicator: WP2, Metabolic Activation: RAT, LIVER, S-9, AROCLOR 1254, Method: STANDARD PLATE): active; positive | mutagenic call (Test System: E. COLI, Strain/Indicator: WP2 UVRA, Metabolic Activation: HAMSTER, LIVER, S-9, AROCLOR 1254, Method: STANDARD PLATE): inactive; negative | mutagenic call (Test System: E. COLI, Strain/Indicator: WP2 UVRA, Metabolic Activation: HAMSTER, LIVER, S-9, Method: STANDARD PLATE): inactive; negative | mutagenic call (Test System: E. COLI, Strain/Indicator: WP2 UVRA, Metabolic Activation: MOUSE, LIVER, S-9, AROCLOR 1254, Method: STANDARD PLATE): inactive; negative | mutagenic call (Test System: E. COLI, Strain/Indicator: WP2 UVRA, Metabolic Activation: MOUSE, LIVER, S-9, Method: STANDARD PLATE): inactive; negative | mutagenic call (Test System: E. COLI, Strain/Indicator: WP2 UVRA, Metabolic Activation: RAT, LIVER, S-9, Method: STANDARD PLATE): inactive; negative | mutagenic call (Test System: MOUSE LYMPHOMA, Strain/Indicator: L5178Y (HGPRT)/6-THIOGUANINE, Metabolic Activation: NONE, Method: SUSPENSION/PLATE): active; positive | mutagenic call (Test System: MOUSE LYMPHOMA, Strain/Indicator: L5178Y (TK+/TK-)/TRIFLUOROTHYMIDINE, Metabolic Activation: NONE, Method: SUSPENSION/PLATE): active; positive | mutagenic call (Test System: MOUSE LYMPHOMA, Strain/Indicator: L5178Y (TK+/TK-), Metabolic Activation: NONE, Method: FLUCTUATION TEST): active; positive | mutagenic call (Test System: MOUSE LYMPHOMA, Strain/Indicator: L5178Y (TK+/TK-), Metabolic Activation: NONE, Method: IN SITU): active; positive | mutagenic call (Test System: MOUSE LYMPHOMA, Strain/Indicator: L5178Y (TK+/TK-), Metabolic Activation: NONE, Method: LIQUID SUSPENSION): active; positive | mutagenic call (Test System: MOUSE LYMPHOMA, Strain/Indicator: L5178Y (TK+/TK-), Metabolic Activation: RAT, LIVER, S-9, AROCLOR 1254, Method: SUSPENSION/PLATE): active; positive | mutagenic call (Test System: UDS HUMAN CELLS, Strain/Indicator: THY INCORP (NON-S-PHASE), Metabolic Activation: NONE, Method: LIQUID SCINTILLATION COUNTING): active; positive | mutagenic call (Test System: UDS HUMAN LYMPHOCYTES, Strain/Indicator: THY INCORP (NON-S-PHASE), Metabolic Activation: NONE, Method: LIQUID SCINTILLATION COUNTING): active; positive | mutagenic call (Test System: UDS RODENT PRIMARY CELLS, Strain/Indicator: THY INCORP (NON-S-PHASE), Metabolic Activation: NONE, Method: LIQUID SCINTILLATION COUNTING): active; positive
